Measurements reported in patent publication US20110135611A1 (priority 2009, published 2011).
Read-outs that look alike come from different tables or passages of the source.

Legend:
GABAA receptors = type: cell-based, mice; conditions: for GABAergic miniature SSCs (mSSCs): BMI 100 μM, in presence of DNQX, D-AP5 and TTX, apoE3-KI and apoE4-KI mice
Excerpt: ApoE3-KI and apoE4-KI mice (2-3 months) were sacrificed 2 weeks after retrovirus-GFP injection and processed for slice preparation as described (Duan et al., 2007; Ge et al., 2006a). Whole-cell voltage-clamp recordings from visually identified GFP^+ neurons (2 weeks after injection) were obtained with an infrared differential interference contrast video microscopy system.
Next the level of GABAergic synaptic innervation, which is critical for neuronal development of newborn hippocampal cells (Ge et al., 2006a; Ge et al., 2006b; Liu et al., 2006; Tozuka et al., 2005), was assessed. GABAergic miniature SSCs (mSSCs) were recorded from GFP^+ neurons (resting membrane potential Vm=−65 mV) 2 weeks after injection of the retrovirus-GFP construct. These studies were conducted in the presence of 6,7-dinitroquinoxaline-2,3-dione (DNQX) (20 μM) and D-(−)-2-amino-5-phosphonovaleric acid (D-AP5) (50 μM) to block glutamate-mediated currents and tetrodotoxin (TTX) (1 μM) to block action potential-mediated GABA release.
In the presence of DNQX and D-AP5, GABA-evoked postsynaptic currents (ePSCs) recorded from GFP^+ neurons were generated by electrical stimulation of GABAergic axons in the molecular layer of the dentate gyrus. This indicates a functional coupling between hilar GABAergic interneurons and newborn neurons in both apoE3-KI and apoE4-KI mice. However, the ePSC peak amplitude was ˜40% lower in apoE4-KI mice (FIGS. 6C, 6D, and 6F). This finding is consistent with a reduction of presynaptic GABAergic inputs onto newborn neurons available for electrical activation in apoE4-KI mice. […] This finding reconfirms the intact GABAA receptor function in newborn neurons of apoE4-KI mice.

NSC proliferation = experiment: Effect of GABAA receptor potentiator or antagonist treatment on NSC proliferation (BrdU+ cells in SGZ); type: in vivo, mice; conditions: 1 day after BrdU injection
Procedure: (§1) Female mice (3, 6-7, or 12-13 months of age) received two intraperitoneal injections of BrdU (Sigma, 100 mg/kg body weight) 6 h apart. One day, 3 days, and 4 and 10 weeks after the second injection, the brains were perfused with phosphate-buffered saline and collected.
To investigate the effect of GABAA receptor potentiator or antagonist treatment on NSC proliferation, female mice (6-7 months of age) were treated with once-daily intraperitoneal injections of pentobarbital (PB) (Sigma, 50 mg/kg; apoE4-KI mice) or picrotoxin (PTX) (Sigma, 4 mg/kg; apoE3-KI mice). Twenty-four hours after the last treatment, mice received two injections of BrdU (100 mg/kg) 6 h apart and were sacrificed 1 day later. […]
Mouse brains were fixed in 4% paraformaldehyde for 3 days, and coronal sections (40 μm) were cut continuously throughout the entire hippocampus with a vibratome. Single- or double-immunostained cells on both sides of the hippocampus of all stained sections were counted and calculated. Numbers of newborn cells (BrdU^+) and immature neurons (BrdU^+ and Dcx^+) in the SGZ were determined 1 or 3 days after BrdU injection; numbers of surviving newborn cells (BrdU^+) and mature neurons (BrdU^+ and NeuN^+) in the SGZ were determined 4 or 10 weeks after injection. Newborn neurons that had migrated from the SVZ to the OB were quantified 4 weeks after BrdU injection as reported (Galvão et al., 2008). […]

neuronal maturation = experiment: Effect of GABAA receptor potentiator or antagonist treatment on neuronal maturation (SGZ, 4 weeks after BrdU); type: in vivo, mice
Procedure: as §1
To investigate the effect of GABAA receptor potentiator or antagonist treatment on NSC proliferation, female mice (6-7 months of age) were treated with once-daily intraperitoneal injections of pentobarbital (PB) (Sigma, 50 mg/kg; apoE4-KI mice) or picrotoxin (PTX) (Sigma, 4 mg/kg; apoE3-KI mice). Twenty-four hours after the last treatment, mice received two injections of BrdU (100 mg/kg) 6 h apart and were sacrificed 1 day later. To investigate the effect of GABAA receptor potentiator or antagonist treatment on neuronal maturation, female mice (6-7 months of age) received two injections of BrdU 6 h apart. Twenty-four hours later, apoE3-KI mice received daily injections of PTX for 7 consecutive days, and apoE4-KI mice received daily injections of PB for 28 consecutive days. Mice were sacrificed 4 weeks after the second BrdU injection.
Mouse brains were fixed in 4% paraformaldehyde for 3 days, and coronal sections (40 μm) were cut continuously throughout the entire hippocampus with a vibratome. Every eighth section was immunostained with various primary and secondary antibodies and examined with a laser-scanning confocal system.
Immunostaining was carried out with anti-BrdU (mouse monoclonal, Chemicon, 1:400; or rat monoclonal, Abcam, 1:400) and/or with antibodies against other cellular markers, including mouse anti-NeuN (Chemicon, 1:400), mouse anti-nestin (Chemicon, 1:50), goat anti-Dcx (Santa Cruz Biotechnology, 1:40), goat anti-Sox2 (Santa Cruz Biotechnology, 1:350), rabbit anti-GFAP (Invitrogen, 1:400), mouse anti-β-III-tubulin (Promega, 1:800), mouse anti-S100β (Abcam, 1:400), and rat anti-Noggin (R&D Systems, 1:200). Corresponding secondary antibodies (Texas Red and fluorescein, 1:250, Vector Laboratories) were used. For Ki67, somatostatin, and GAD67 immunostaining, rabbit anti-Ki67 (Bethyl Labs, 1:1000), rat anti-somatostatin (Chemicon, 1:100), and mouse anti-GAD67 (Chemicon, 1:1500) were used with biotinylated goat anti-rabbit IgG (1:250), rabbit anti-rat IgG (1:250), and rabbit anti-mouse IgG (1:250) as secondary antibodies and diaminobenzadine as a chromagen (Dako).
Mouse brains were fixed in 4% paraformaldehyde for 3 days, and coronal sections (40 μm) were cut continuously throughout the entire hippocampus with a vibratome. Single- or double-immunostained cells on both sides of the hippocampus of all stained sections were counted and calculated. Numbers of newborn cells (BrdU^+) and immature neurons (BrdU^+ and Dcx^+) in the SGZ were determined 1 or 3 days after BrdU injection; numbers of surviving newborn cells (BrdU^+) and mature neurons (BrdU^+ and NeuN^+) in the SGZ were determined 4 or 10 weeks after injection. Newborn neurons that had migrated from the SVZ to the OB were quantified 4 weeks after BrdU injection as reported (Galvão et al., 2008). The number of GABAergic interneurons in the hilus of the dentate gyrus was determined by counting GAD67- and somatostatin-positive cells.

[1] = tested on: dendritic development of newborn neurons; experiment: Dendritic development of retrovirus-GFP labelled newborn hippocampal neurons; type: in vivo, mice
NSCs from apoE-KO mice = experiment: NSC culture and neural differentiation in vitro; type: cell-based; conditions: neuronal differentiation conditions, Noggin 500 ng/ml
Procedure: NSCs were isolated from brains of apoE3-KI, apoE4-KI, wildtype, and apoE-KO mice at postnatal day 1 (P1) using a modified neurosphere method (Brewer and Torricelli, 2007; Ray and Gage, 2006). The expression of apoE and Noggin in NSCs with different apoE genotypes was assessed by anti-apoE and anti-Noggin (R&D Systems) western blots of cell lysates. Neural differentiation of the established NSCs with different apoE genotypes was induced in vitro as reported (Song et al., 2002). In some experiments, recombinant mouse Noggin (R&D Systems) was added at 500 ng/ml into the medium during neural differentiation. Neuronal and astrocytic differentiation of NSCs at 7 days was determined and quantified.

[2] = apoE4-KI mice, daily PB for 4 weeks
[3] = apoE3-KI mice, daily PTX for 7 days, 4 weeks after BrdU injection

## C[N+]1(C)CCc2cc3c(cc2[C@H]1[C@@H]1OC(=O)c2c1ccc1c2OCO1)OCO3.[I-] [Bicuculline methoiodide]
GABAA receptors; BMI 100 μM bath application, in presence of DNQX and D-AP5
  ePSCs (evoked postsynaptic currents): Currents were blocked
GABAA receptors
  GABAergic miniature SSCs (mSSCs): abolished the mSSCs
GABAA receptors; listed as BMI
  GABAergic miniature SSCs (mSSCs): The mSSCs were blocked

## NCCCC(=O)O [GABA, gamma-aminobutyric acid]
GABAA receptors; exogenous GABA 500 μM, GFP+ neurons from apoE3-KI vs apoE4-KI mice
  current amplitudes evoked by focal application: evoked similar current amplitudes in GFP^+ neurons from apoE3-KI and apoE4-KI mice

## CCCC(C)C1(CC)C(=O)NC(=O)NC1=O (stereo not drawn) [pentobarbital]
NSC proliferation; apoE4-KI mice, PB 50 mg/kg i.p. once daily
  number of newborn cells (BrdU+) in the SGZ: decreased the number of newborn cells to levels similar to those of wildtype and untreated apoE3-KI mice
Neuronal maturation; [2]
  number of immature neurons: decreased the number of immature neurons
  number of mature neurons: increased the number of mature neurons
[1]; apoE3-KI mice treated with PB
  length of dendritic branches of newborn neurons: did not alter the length or number of dendritic branches
  number of dendritic branches of newborn neurons: did not alter the length or number of dendritic branches
[1]; apoE4-KI mice treated with PB
  dendritic branch number of newborn neurons: increases in both dendritic length and branch number to levels similar to those in wildtype and apoE3-KI mice
  dendritic length of newborn neurons: increases in both dendritic length and branch number to levels similar to those in wildtype and apoE3-KI mice
[1]; wildtype mice treated with PB
  number of dendritic branches of newborn neurons: trend toward significant increase (p=0.053)

## picrotoxin
NSC proliferation; apoE3-KI mice, PTX 4 mg/kg i.p. once daily for 3 days
  number of newborn cells (BrdU+) in the SGZ: increased the number of newborn cells 1 day after BrdU injection to a level similar to that in untreated apoE4-KI mice
Neuronal maturation; [3]
  number of immature neurons: the number of immature neurons was increased
  number of mature neurons: the number of mature neurons was decreased
  survival of newborn cells: the survival of newborn cells was unaltered

B1: recombinant mouse Noggin: recombinant mouse Noggin (R&D Systems), bone-morphogenetic protein (BMP) inhibitor (protein, UniProt P97466 28-232, looked up)
Noggin: QHYLHIRPAPSDNLPLVDLIEHPDPIFDPKEKDLNETLLRSLLGGHYDPGFMATSPPEDRPGGGGGPAGGAEDLAELDQLLRQRPSGAMPSEIKGLEFSEGLAQGKKQRLSKKLRRKLQMWLWSQTFCPVLYAWNDLGSRFWPRYVKVGSCFSKRSCSVPEGMVCKPSKSVHLTVLRWRCQRRGGQRCGWIPIQYPIISECKCSC
NSCs from apoE-KO mice
  astrogenesis: inhibited astrogenesis
  neurogenesis: stimulated neurogenesis to levels similar to those of NSCs from wildtype mice
